Laboratory results taken from PMC10610214 (Pharmaceuticals, 2023).
Entries after “also recorded” stand apart in the source; their conditions may differ. Like-named read-outs stand apart in the source and are kept apart here.

Tests used:
[1] = LD50 determination in mice (Bliss method); type: in vivo, C57BL mice; details: male, C57BL, mouse, in vivo, po, intragastric administration 7 days, Bliss method, read-out: LD50 (95% confidence limit)
Protocol: (§1) Male C57BL mice (18–23 g; 8 weeks old) were purchased from the Experimental Center of Anhui University of Traditional Chinese Medicine. Mice were reared in a temperature and humidity controlled environment with free access to food and water, with self-adaptive rearing for 4 days.
(§2) Thirty mice were randomly divided into five groups, and the death of each group was counted after 7 days of intragastric administration (100, 80, 64, 51.2, 40.96 mg/kg). The Bliss method was used to calculate the LD50 and 95% confidence limit.

mice = experiment: LD50 determination in mice (Bliss method); type: in vivo, C57BL mice; details: intragastric 7 days
Protocol: as §1, §2

BuChE = biological target: T1, BuChE (Equus caballus, UniProt P81908); experiment: Reversibility of BuChE inhibition, dilution method; type: biochemical; details: for BuChE activity after dilution (reversibility): control 100
T1 construct: BuChE (from equine serum); purchased Sigma Chemical Company (St. Louis, MO, USA); host or cells: equine serum
T1 sequence (P81908 whole entry): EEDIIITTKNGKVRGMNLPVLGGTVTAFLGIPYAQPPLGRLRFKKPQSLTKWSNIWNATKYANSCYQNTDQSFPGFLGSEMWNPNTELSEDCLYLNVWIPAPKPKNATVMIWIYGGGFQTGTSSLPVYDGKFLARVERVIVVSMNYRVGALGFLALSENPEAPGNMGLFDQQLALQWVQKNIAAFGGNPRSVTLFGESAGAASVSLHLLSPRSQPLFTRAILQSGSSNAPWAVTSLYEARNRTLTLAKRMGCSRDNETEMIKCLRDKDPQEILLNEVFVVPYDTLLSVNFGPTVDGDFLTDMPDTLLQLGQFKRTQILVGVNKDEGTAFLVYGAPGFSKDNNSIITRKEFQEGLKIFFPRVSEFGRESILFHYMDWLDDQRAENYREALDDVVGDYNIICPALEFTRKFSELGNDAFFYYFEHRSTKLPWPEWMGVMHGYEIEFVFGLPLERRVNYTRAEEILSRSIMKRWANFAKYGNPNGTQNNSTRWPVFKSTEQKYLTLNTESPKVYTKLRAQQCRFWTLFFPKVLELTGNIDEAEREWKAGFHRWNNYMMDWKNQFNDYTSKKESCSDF
Protocol: (§3) The activities of the diluted residual enzymes were measured by Ellman’s modified method.
(§4) Reversibility studies were performed using a modified Ellman’s dilution method to measure the activity of the diluted residual enzyme. The AChE/BuChE (0.5 U/mL), ATCI/BTCI (0.01 M) and DTNB (0.01 M) were diluted with phosphate buffer pH = 7.4. […] At the end of incubation, 20 μL of DTNB solution was added to them. […] All the measured results are expressed as the mean ± SEM of the three independent experiments.

IL-1β in BV2 cells = experiment: IL-1β secretion in LPS-stimulated BV2 cells (ELISA); type: cell-based; details: Mus musculus, BV-2, 24 h, read-out: IL-1β inhibition IC50
Protocol: The cytotoxicity of compounds on BV2 cells were evaluated by MTT assay and similar to those described in Section 2.5. The NO concentrations in medium were determined using Griess Reagent assay (Beyotime) in accordance with a previously reported method. Nitrite is reduced to nitrogen oxide using Griess Reagent I. Nitrogen oxide then reacts with Griess Reagent II forming a stable product that can be detected by its absorbance at […]. The two-step assay is simple, fast, and can detect nitrite levels as low as 1 nmol/well. BV2 cells were seeded into a 48-well plate at a density of 6.0 × 10^4 cells per well. After the cells were incubated overnight, the old medium was discarded. Then, the cells were pretreated with various concentrations (10, 5, 1, 0.5, and 0.1 μM) of compounds for 1 h and then co-incubated with LPS (1 μg/mL, 30 μL/well) for 24 h. After 24 h, the cell supernatant (50 μL/well) was placed into a new 96-well plate for experiment. […] The absorbance at […] was measured by a microplate reader.
The contents of TNF-α and IL-β in the cell supernatant were measured via ELISA (Jyimei, Wuhan, China) following the manufacturer’s instructions.

[2] = Metal chelation by UV–Vis spectroscopy; type: physicochemical; details: 20 μM 4h, 1 equivalent CuCl2, methanol/water 1/1
Protocol: In the wavelength range of 200–600 nm, the metal chelating ability of compound 4h was analyzed by UV–Vis spectroscopy. Specifically, compound 4h (dissolved in DMSO) solutions were prepared with a mixture of methanol and deionized water (1/1). Stock solutions of cation salts (10 mM) were prepared with deionized water and then in the presence or absence of ZnCl2, CuCl2, AlCl3, FeSO4, MgCl2, and CaCl2 (20 μM, final concentration), respectively, and incubated with 4h (20 μM, final concentration) for 1 h at room temperature. The final volume of the reaction mixture was 2 mL. The UV absorption of the test substance was recorded in a 1 cm quartz cell.

SY5Y cells = experiment: Cytotoxicity in SY5Y cells (MTT); type: cell-based
BV2 cells = experiment: LPS-induced ROS production in BV2 cells; type: cell-based; details: 4h 7.5, 15, 30 μM
Protocol: Intracellular ROS levels was detected by the ROS assay kit (Biyuntian Biotechnology, Hang Zhou, China). […] The control group involved culturing the BV2 microglia cells in normal culture media without any treatment. Then, the cells were washed with PBS (pH 7.2) and incubated with DCFH-DA at 37 °C for 20 min. Finally, cells were washed with DMEM and the fluorescence intensity was observed under confocal laser scanning microscope.

AChE = biological target: T2, AChE (Electrophorus electricus, UniProt O42275); type: biochemical; details: for AChE activity after dilution (reversibility): control 100
T2 construct: AChE (from electric eel); purchased Sigma Chemical Company (St. Louis, MO, USA)
T2 sequence (O42275 24-633): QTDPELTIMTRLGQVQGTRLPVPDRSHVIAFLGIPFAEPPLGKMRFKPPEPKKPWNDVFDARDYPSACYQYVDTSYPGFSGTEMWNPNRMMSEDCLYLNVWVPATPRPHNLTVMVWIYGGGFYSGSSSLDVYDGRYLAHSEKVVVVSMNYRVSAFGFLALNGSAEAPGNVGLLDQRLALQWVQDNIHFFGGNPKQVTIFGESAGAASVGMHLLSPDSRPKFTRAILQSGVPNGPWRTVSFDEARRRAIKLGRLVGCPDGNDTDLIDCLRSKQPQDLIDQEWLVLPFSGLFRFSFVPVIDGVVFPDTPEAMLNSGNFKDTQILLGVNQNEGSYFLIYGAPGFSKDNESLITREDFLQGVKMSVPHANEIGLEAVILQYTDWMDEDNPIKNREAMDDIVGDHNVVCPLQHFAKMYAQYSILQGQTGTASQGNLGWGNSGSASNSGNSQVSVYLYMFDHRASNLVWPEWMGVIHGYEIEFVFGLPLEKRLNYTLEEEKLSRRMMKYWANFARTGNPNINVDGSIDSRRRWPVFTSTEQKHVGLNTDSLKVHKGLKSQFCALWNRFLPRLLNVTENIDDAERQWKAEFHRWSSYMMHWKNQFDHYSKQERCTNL
Protocol: as §3, §4

iNOS = iNOS expression in LPS-stimulated BV2 cells (Western blot); type: cell-based; details: 1, 2, 4 μM
Protocol: BV2 cells were seeded into a 6-well plate at a density of 3.0 × 10^5 cells per well. After incubation overnight, the old medium was discarded. Then, the cells were pretreated with various concentrations (1, 2, and 4 μM) of 4h for 1 h and then co-incubated with LPS (1 μg/mL) for 24 h. After incubation was completed, the cells were washed twice with PBS, and 300 μL of cell lysis buffer (RIRA lysis buffer, phosphatase inhibitor, protease inhibitor, and PMSF) was added to each well. The cells were then incubated on ice for 30 min and centrifuged at 12,000 rpm at 4 °C for 30 min to collect the supernatant. The protein content in the supernatant was detected using the BCA protein detection kit (Beyotime, Shanghai, China). Total proteins were separated by 10% SDS-PAGE and then transferred from the gel to a PVDF membrane (Sigma-Aldrich, Shanghai, China). The membranes were blocked in TBST solution containing 5% skimmed milk for 2 h. Next, the membranes were washed three times (TBST) and incubated with primary antibody dilution (Cell Signaling Technologies, Boston, MA, USA) overnight at 4 °C. Then, they were washed another three times (TBST), incubated with the secondary antibody at room temperature for 90 min, and then washed three times with TBST. The blots were visualized by a chemiluminescence imager (Tanon 5200, Shanghai, China).

[3] = final inhibitor 0.1 × IC50 after 100-fold dilution
[4] = final inhibitor 1 × IC50 after 100-fold dilution

## O=C1c2cc(NS(=O)(=O)c3ccccc3F)ccc2-n2c1nc1ccccc1c2=O [4h]
[1]
  LD50 at 7 days: 84.8 mg/kg
mice; 40.96 mg/kg
  Mortality rate (%): 0%
  Number of deaths: 0
mice; 51.2 mg/kg
  Mortality rate (%): 0%
  Number of deaths: 0
mice; 64 mg/kg
  Mortality rate (%): 16.7%
  Number of deaths: 1
mice; 80 mg/kg
  Mortality rate (%): 50%
  Number of deaths: 3
mice; 100 mg/kg
  Mortality rate (%): 66.7%
  Number of deaths: 4
BuChE; dilution method
  Reversibility of BuChE inhibition: reversible inhibitor
BuChE; [3]
  BuChE activity after dilution (reversibility): 92.2 ± 0.52
BuChE; [4]
  BuChE activity after dilution (reversibility): 84.9 ± 1.2
IL-1β in BV2 cells
  IC50: 1780 ± 210 nM
[2]
  Metal chelating ability (UV–Vis): maximum absorption intensity at 261 nm was markedly reduced; also recorded: can chelate Cu^2+
SY5Y cells; 30 μM
  Cell Viability (% of Control): 97.84 ± 1.24 % of control
SY5Y cells; 50 μM
  Cell Viability (% of Control): 91.33 ± 1.48 % of control
BV2 cells
  Intracellular ROS levels in BV2 cells: significantly reduced intracellular ROS levels
AChE; dilution method
  Reversibility of AChE inhibition: reversible inhibitor
AChE; [3]
  AChE activity after dilution (reversibility): 87.2 ± 0.92
AChE; [4]
  AChE activity after dilution (reversibility): 72.3 ± 1.03
iNOS
  iNOS expression: significantly decreased the expression of COX-2 and iNOS
